Test results reported in paper PMC2120445 (The Journal of Cell Biology, 1995).
Read-outs that look alike come from different tables or passages of the source. Where no end group is shown, it is not given here.

Legend:
[1] = test system: Schwann cells; settings: cited from earlier work; for promotion of Schwann cell proliferation: rat sciatic nerve Schwann cells in culture, ref Eccleston, 1992, Ratner et al., 1988
[2] = test system: Schwann cells (rat sciatic nerve); assay type: cell-based; settings: for doubling time: estimated from BrdU incorporation
[3] = test system: sciatic nerve fibroblasts; assay: Proliferation of sciatic nerve fibroblasts induced by PDGF; assay type: cell-based, rat; settings: Kahn and Mudge, unpublished results
[4] = test system: erbB2 receptor; settings: Schwann cells; ref Weinmaster and Lemke (1990), Mudge, 1993 (review); cited from earlier work
[5] = test system: Schwann cells (rat sciatic nerve); assay type: cell-based; settings: for BrdU incorporation compared with forskolin: agent alone, without PDGF, pulsatile regime; for doubling time / cells synthesizing DNA in 24 h: in the presence of PDGF; for doubling time: estimated from cells synthesizing DNA; for cells synthesizing DNA in 24 h: increased from 10%, Discussion
[6] = test system: PDGF receptor; settings: ref Weinmaster and Lemke, 1990, cited from earlier work
[7] = test system: Schwann cells (rat sciatic nerve); assay type: cell-based; settings: for attenuation (desensitization) of cAMP response with time: Schwann cells, even in the presence of IBMX
[8] = test system: cultured Schwann cells; settings: ref Yasuda et al., 1988; cited from earlier work
[9] = test system: macrophages; settings: ref Wiik, 1989; Vignery et al., 1991; cited from earlier work
[10] = test system: sciatic nerve fibroblasts; assay: Intracellular cAMP accumulation in sciatic nerve fibroblasts; assay type: cell-based, rat; settings: for dependence of cAMP effect on culture age: with IBMX, 2 d versus 7 d cultures, Fig. 2
[11] = test system: neutral endopeptidase 24.11; settings: ref Davies et al., 1992; Turner, A. J., personal communication; cited from earlier work
[12] = cultured Schwann cells, ref Raff et al., 1978a,b, Ridley et al., 1989, Davis and Stroobant, 1990, Weinmaster and Lemke, Chen et al., 1991, Stewart et al., Goodearl et al., 1993, Marchionni et al.
[13] = with 10 ng/ml PDGF-BB, pulsatile, Fig. 6 b

CCCC(=O)Nc1ncnc2c1ncn2[C@@H]1O[C@@H]2COP(=O)(O)O[C@H]2[C@H]1OC(=O)CCC [dibutyryl cAMP]
potentiation of response to growth factors [1, 12]: greatly potentiated

C=C[C@@]1(C)CC(=O)[C@]2(O)[C@@]3(C)[C@@H](O)CCC(C)(C)[C@@H]3[C@H](O)[C@H](OC(C)=O)[C@@]2(C)O1 [forskolin]
doubling time ([2]; 1 µM forskolin with PDGF, continuous): ~ 2 d | Schwann cells incorporating BrdU in 24 h ([2]; 1 µM forskolin with PDGF, continuous, range in at least 10 different experiments): 40-60% | DNA synthesis ([1]; 1 µM forskolin and PDGF, ref Stewart et al., 1991): no DNA synthesis | cells incorporating BrdU in 24 h ([1]; PDGF and 10 µM forskolin, ref Stewart et al., 1991): 6% | potentiation of response to growth factors [1, 12]: greatly potentiated | effect on PDGF-induced proliferation of fibroblasts [3]: inhibits the proliferation of sciatic nerve fibroblasts induced by PDGF | erbB2 receptor expression [4]: upregulated | increase in BrdU incorporation, together with PDGF ([5]; fold, with 10 ng/ml PDGF-BB, pulsatile, every 3 h with 3-h wash-out, Fig. 6 b): eightfold | type of interaction with PDGF [5, 13]: synergistic | synthesis of PDGF beta receptor [6]: increased synthesis | treatment time required to increase PDGF beta receptor mRNA [6]: 12 to 24 h | effect of a single 3-h pulse on PDGF beta receptor mRNA ([6]; single 3-h pulse): ineffective

CC(C)NCC(O)c1ccc(O)c(O)c1 (stereo not shown) [isoproterenol]
dependence of cAMP response on culture age ([7]; 3-d versus 8-d cells, 5 min, Fig. 1): more pronounced in 8-d cells | attenuation (desensitization) of cAMP response with time ([7]; Fig. 4 a): declined with time in similar fashion to the CGRP response | BrdU incorporation compared with forskolin ([5]; Fig. 6 b): comparable to the effect of forskolin | doubling time ([5]; pulsatile): ~ 4 d | cells synthesizing DNA in 24 h ([5]; pulsatile): ~25% | type of interaction with PDGF [5, 13]: simply additive | plateau of cAMP effect [8]: did not plateau even at 10-4 M

FGF-1: growth factor, literature mitogen
promotion of Schwann cell proliferation [1]: promote the proliferation

FGF-2: growth factor, literature mitogen
promotion of Schwann cell proliferation [1]: promote the proliferation

calcitonin gene-related peptide [CGRP]
desensitization at lower dose ([7]; 10^-8 M CGRP): desensitization was reduced with this dose | magnitude of cAMP response ([7]; 5 min with 5 x 10^-8 M CGRP without IBMX, Discussion): 8-10 fold | attenuation (desensitization) of cAMP response with time ([7]; Fig. 4 a): declined rapidly, even in the presence of IBMX | cAMP over basal after 1 h ([7]; maximal dose of CGRP, declined even in the presence of IBMX, Fig. 4 a): twofold | increase in cAMP over basal after 5 min ([7]; maximal dose of CGRP, without IBMX, high density, 4 d in defined medium, Fig. 4 a): eightfold | activity of CGRP after 3 h incubation with Schwann cells ([7]; medium from Schwann cells incubated with CGRP for 3 h transferred to fresh cultures, 5 min, Fig. 5): a comparable stimulation of cAMP | BrdU incorporation compared with forskolin ([5]; Fig. 6 b): comparable to the effect of forskolin | doubling time ([5]; pulsatile): ~ 4 d | cells synthesizing DNA in 24 h ([5]; pulsatile): ~25% | type of interaction with PDGF [5, 13]: synergistic | effect together with PDGF compared with forskolin and PDGF ([5]; with PDGF, pulsatile, Fig. 6 b): as effective as forskolin and PDGF | cAMP in macrophages [9]: increase cAMP levels in macrophages | attenuation of cAMP response ([10]; compared with Schwann cells, 5 x 10-s M CGRP (so in the source), 200 µM IBMX, Fig. 4 b): even more rapid | substrate of neutral endopeptidase 24.11 [11]: very good substrate

cholera toxin
potentiation of response to growth factors [1]: greatly potentiated

glial growth factor [GGF]
promotion of Schwann cell proliferation [1]: promote the proliferation | mitogenicity without forskolin / enhancement of GGF effect ([1]; ref Davis and Stroobant, 1990, Goodearl et al., 1993, Marchionni et al.): is a mitogen without forskolin

peptide histidine-isoleucine [PHI]
dependence of cAMP effect on culture age [10]: only seen in the older cultures

vasoactive intestinal peptide (HSDAVFTDNYTRLRKQMAVKKYLNSILN; ends and bridges not checked; UniProt P01282 125-152, looked up) [VIP]
cAMP in macrophages [9]: increase cAMP levels in macrophages | dependence of cAMP effect on culture age [10]: only seen in the older cultures | plateau of cAMP effect [8]: did not plateau even at 10-4 M

B1: PDGF: Recombinant human PDGF-BB purchased from R&D Systems (protein, UniProt P01127 82-190, looked up)
Platelet-derived growth …: SLGSLTIAEPAMIAECKTRTEVFEISRRLIDRTNANFLVWPPCVEVQRCSGCCNNRNVQCRPTQVQLRPVQVRKIEIVRKKPIFKKATVTLEDHLACKCETVAAARPVT
doubling time ([2]; PDGF alone): 10 days | Schwann cells incorporating BrdU in 24 h ([2]; defined medium with PDGF alone (before forskolin), Discussion): 10% | promotion of Schwann cell proliferation [1]: promote the proliferation
